The values below come from US20090030179A1, “ANTIMICROBIAL PEPTIDE AND USE THEREOF” (TOAGOSEI CO., LTD, priority 2005, published 2009).

Assay [1] has as its system Gram-positive bacteria (Staphylococcus aureus). Type of assay: cell-based. To be noted: for Antimicrobial Activities (MIC) S. aureus: Gram-positive bacteria, 24 h. The protocol: (§1) Regarding the antimicrobial peptides (samples 1 to 12) and the peptide of comparative sample 1 related to the present invention, their antimicrobial activities (minimum inhibitory concentration: MIC) against Gram-negative bacteria (Escherichia coli) and Gram-positive bacteria (Staphylococcus aureus) were determined, as described below, by liquid medium dilution method using a 96-well microplate. […] The prepared liquid broth media containing the peptide at each concentration described above were then loaded onto 96-well microplates in 100-μL aliquots. At the same time, the tested bacteria cultured for 18 hours at 37° C. on an agar plate (“Muller Hinton Agar” manufactured by DIFCO) were collected by scraping with a loop, and then suspended in sterilized physiological saline. 5 μL of bacterial suspension prepared to be equivalent to 2×10^7 cells/mL was inoculated (number of bacteria to be tested: approximately 1×10^6 cells/mL) into each well of the above-described microplate filled with the liquid broth media containing the peptide at each concentration. After inoculation, the microplate was then incubated in an incubator at 37° C., and the presence of bacteria was evaluated based on the turbidity after 24 hours. The minimum drug concentration (polypeptide concentration), at which no increase in bacterial turbidity was detected at the time of measurement, was defined as MIC (minimum inhibitory concentration) (unit: μM) in the present embodiment.

Assay [2] relates to Gram-negative bacteria (Escherichia coli). The format is cell-based. To be noted: for Antimicrobial Activities (MIC) E. coli: Gram-negative bacteria, 24 h. The protocol:
as §1

Residues, ends and D or L forms follow the SMILES beside them.

With “H-SLKHLCRKALRSFLT-NH2 [Sample 10, SLKHLCRKALRSFLT]”, in assay [1], the “Antimicrobial Activities (MIC) S. aureus” value was 12.5 µM.

Take “H-TLQHLCRKTVNGHLD-NH2 [Sample 6, TLQHLCRKTVNGHLD]”: the “Antimicrobial Activities (MIC) S. aureus” value in assay [1] came to 50 µM.

For the molecule `CC(C)C[C@H](NC(=O)[C@H](CS)NC(=O)[C@H](CCCNC(=N)N)NC(=O)[C@H](CCC(=O)O)NC(=O)[C@H](CCCCN)NC(=O)[C@H](CC(C)C)NC(=O)[C@@H](N)[C@@H](C)O)C(=O)N[C@@H](CCC(N)=O)C(=O)N[C@H](C(=O)N[C@H](C(=O)N[C@@H](CCCNC(=N)N)C(=O)N[C@@H](CO)C(=O)N[C@@H](CC(C)C)C(=O)N[C@H](C(=O)N[C@@H](CCCCN)C(N)=O)C(C)C)C(C)C)C(C)C` [Sample 1, TLKERCLQVVRSLVK], the “Antimicrobial Activities (MIC) E. coli” value in assay [2] amounted to 6.25 µM. The “Antimicrobial Activities (MIC) S. aureus” value in assay [1] came out at 3.13 µM.

In the case of “H-SLQHLCRFRIRQLVR-NH2 [Sample 9, SLQHLCRFRIRQLVR]”, the “Antimicrobial Activities (MIC) S. aureus” value in assay [1] amounted to 12.5 µM.

Consider “H-TLHQQCIRVLKNNID-NH2 [Comparative Sample 1, TLHQQCIRVLKNNID, reference compound]”, for which the “Antimicrobial Activities (MIC) E. coli” value in assay [2] is more than 200 µM. The “antimicrobial activity (in words), E. coli” value in assay [2] (summary of Table 2) is listed as “no antimicrobial activity was detected”. Besides, the “Antimicrobial Activities (MIC) S. aureus” value in assay [1] is more than 200 µM. The “antimicrobial activity (in words), S. aureus” value in assay [1] (summary of Table 2) is listed as “no antimicrobial activity was detected”.

As for “H-SLTHLCRLEIRSSIK-NH2 [Sample 12, SLTHLCRLEIRSSIK]”, in assay [1], the “Antimicrobial Activities (MIC) S. aureus” value worked out at 25 µM.

Regarding “H-SLQHICRMSIRRVMS-NH2 [Sample 3, SLQHICRMSIRRVMS]”, the “Antimicrobial Activities (MIC) E. coli” value in assay [2] came to 12.5 µM. Besides, the “Antimicrobial Activities (MIC) S. aureus” value in assay [1] stood at 6.25 µM.

In the case of `CC[C@H](C)[C@H](NC(=O)[C@H](Cc1c[nH]cn1)NC(=O)[C@H](CCC(N)=O)NC(=O)[C@H](CC(C)C)NC(=O)[C@@H](N)CO)C(=O)N[C@@H](CS)C(=O)N[C@@H](CCCNC(=N)N)C(=O)N[C@H](C(=O)N[C@H](C(=O)N[C@H](C(=O)N[C@@H](CS)C(=O)N[C@@H](CC(N)=O)C(=O)N[C@@H](CS)C(=O)N[C@H](C(=O)N[C@H](C(N)=O)[C@@H](C)O)[C@@H](C)O)[C@@H](C)CC)C(C)C)[C@@H](C)O` [Sample 7, SLQHICRTVICNCTT] (H-SLQHICRTVICNCTT-NH2), the “Antimicrobial Activities (MIC) S. aureus” value in assay [1] was 50 µM.

As to “H-TLKKRCLQVVRKLVK-NH2 [Sample 5, TLKKRCLQVVRKLVK]”, the “Antimicrobial Activities (MIC) E. coli” value in assay [2] turned out to be 3.13 µM. For the same molecule, the “Antimicrobial Activities (MIC) S. aureus” value in assay [1] amounted to 3.13 µM.

As for `CC[C@H](C)[C@H](NC(=O)[C@H](Cc1ccc(O)cc1)NC(=O)[C@H](CCC(N)=O)NC(=O)[C@H](CC(C)C)NC(=O)[C@@H](N)CO)C(=O)N[C@@H](CS)C(=O)N[C@@H](CCCNC(=N)N)C(=O)N[C@@H](C)C(=O)N[C@H](C(=O)N[C@H](C(=O)N[C@@H](CS)C(=O)N[C@@H](CCCNC(=N)N)C(=O)N[C@@H](CS)C(=O)N[C@H](C(=O)N[C@H](C(N)=O)[C@@H](C)O)[C@@H](C)O)[C@@H](C)CC)C(C)C` [Sample 8, SLQYICRAVICRCTT] (H-SLQYICRAVICRCTT-NH2), the “Antimicrobial Activities (MIC) S. aureus” value in assay [1] came to 50 µM.

On to “H-PLAHLCRLRVRKAIG-NH2 [Sample 11, PLAHLCRLRVRKAIG]”, for which the “Antimicrobial Activities (MIC) S. aureus” value in assay [1] came to 12.5 µM.

“H-TLLSLCRVAVRRALG-NH2 [Sample 4, TLLSLCRVAVRRALG]”: the “Antimicrobial Activities (MIC) E. coli” value in assay [2] was determined as 6.25 µM. Besides, in assay [1], the “Antimicrobial Activities (MIC) S. aureus” value is 1.56 µM.

Regarding “H-SLQYLCRFVIRQYTR-NH2 [Sample 2, SLQYLCRFVIRQYTR]”, in assay [2], the “Antimicrobial Activities (MIC) E. coli” value was found to be 25 µM. Also, the “Antimicrobial Activities (MIC) S. aureus” value in assay [1] was 6.25 µM.
